Test results published in PMC10516623 (2023).

How the values were obtained:
[1] = system: PK_C18A/G49U/C50U (DNA:RNA, riboswitch, nucleotides 1-52 of strand 1 RNA, 53-70 DNA; strand 2 DNA) GAUACCUGUCACAACGGAUUCCUGGCGUGACGAGGUGACCUCAGUGGAUUAAACCGCTGCCGTCGCTCCG/CGGAGCGACGGCAGCGGT; experiment: smFRET titration, two-state isotherm (pre-folded); conditions: 100 mM KCl, 2 mM MgCl2, 40 mM HEPES pH 7.5, immobilised RNA
[2] = system: P1x_A14C/C26U (DNA:RNA, riboswitch, nucleotides 1-52 of strand 1 RNA, 53-70 DNA; strand 2 DNA) GAUACCUGUCACACCGGCUUCCUGGUGUGACGAGGUGACCUCAGUGGAGCAAACCGCTGCCGTCGCTCCG/CGGAGCGACGGCAGCGGT; experiment: smFRET titration, two-state isotherm (pre-folded); conditions: 100 mM KCl, 2 mM MgCl2, 40 mM HEPES pH 7.5, immobilised RNA
[3] = system: P1x_A14P (DNA:RNA, riboswitch, purine (adenine lacking N6) at 14 (replaces A) of strand 1; nucleotides 1-52 RNA, 53-70 DNA; strand 2 DNA) GAUACCUGUCACAACGGCUUCCUGGCGUGACGAGGUGACCUCAGUGGAGCAAACCGCTGCCGTCGCTCCG/CGGAGCGACGGCAGCGGT; experiment: smFRET titration, two-state isotherm (pre-folded); conditions: 100 mM KCl, 2 mM MgCl2, 40 mM HEPES pH 7.5, immobilised RNA
[4] = system: T_G16P (DNA:RNA, riboswitch, purine (adenine lacking N6) at 16 (replaces G, written as G) of strand 1; nucleotides 1-52 RNA, 53-70 DNA; strand 2 DNA) GAUACCUGUCACAACGGCUUCCUGGCGUGACGAGGUGACCUCAGUGGAGCAAACCGCTGCCGTCGCTCCG/CGGAGCGACGGCAGCGGT; experiment: smFRET titration, two-state isotherm (pre-folded); conditions: 100 mM KCl, 2 mM MgCl2, 40 mM HEPES pH 7.5, immobilised RNA
[5] = system: Wild-typed SAM/SAH riboswitch (Cy3-U20, 3' DNA extension, annealed to anchor DNA) (DNA:RNA, riboswitch, nucleotides 1-52 of strand 1 RNA, 53-70 DNA; strand 2 DNA) GAUACCUGUCACAACGGCUUCCUGGCGUGACGAGGUGACCUCAGUGGAGCAAACCGCTGCCGTCGCTCCG/CGGAGCGACGGCAGCGGT; experiment: smFRET titration, two-state isotherm (pre-folded); conditions: 100 mM KCl, 2 mM MgCl2, 40 mM HEPES pH 7.5, immobilised RNA, text b38 gives 10 μM
[6] = system: Wild-typed SAM/SAH riboswitch (Cy3-U20, 3' DNA extension, annealed to anchor DNA) (DNA:RNA, riboswitch, nucleotides 1-52 of strand 1 RNA, 53-70 DNA; strand 2 DNA) GAUACCUGUCACAACGGCUUCCUGGCGUGACGAGGUGACCUCAGUGGAGCAAACCGCTGCCGTCGCTCCG/CGGAGCGACGGCAGCGGT; experiment: smFRET vectorial folding (Rep-X unwinding), two-state isotherm; conditions: 100 mM KCl, 2 mM MgCl2, 40 mM HEPES pH 7.5, 2 mM ATP, RNA released from cDNA heteroduplex, non-equilibrium
[7] = system: P1x_C26Z (DNA:RNA, riboswitch, zebularine at 26 (replaces C) of strand 1; nucleotides 1-52 RNA, 53-70 DNA; strand 2 DNA) GAUACCUGUCACAACGGCUUCCUGGCGUGACGAGGUGACCUCAGUGGAGCAAACCGCTGCCGTCGCTCCG/CGGAGCGACGGCAGCGGT; experiment: smFRET titration, two-state isotherm (pre-folded); conditions: 100 mM KCl, 2 mM MgCl2, 40 mM HEPES pH 7.5, immobilised RNA, text b44 gives 41 μM

SMILES: C[S+](CC[C@H](N)C(=O)O)C[C@H]1O[C@@H](n2cnc3c(N)ncnc32)[C@H](O)[C@@H]1O (stereo partly shown)
- Kd [1]: > 1000 µM
- Kd [2]: 593 µM
- Kd [3]: 61 µM
- Kd [4]: 607 µM
- Kd [5]: 11 µM
- apparent Kd [6]: 108 µM
- Kd [7]: 42 µM
